# Measurements published in ChEMBL document CHEMBL1201862, “PubChem BioAssay data set” (2004).
#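 1) Cells in 96-well plates. 2) Compound, 48 h, 5 concentrations. 3) Linear interpolation between surrounding doses. 4) Unreached endpoint = highest concentration. GI50 marks 50% less growth.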 The source made the active and inactive calls. No stated cut-off is given here; in the data, active = GI50 up to about 1.1 µM and inactive = higher.
# Tests used:
# Test in all cases: NCI-60 cell line screen, 48 h
# [1] = test system: HT-29
# [2] = test system: SK-MEL-5
# [3] = test system: ACHN
# [4] = test system: OVCAR-5
# [5] = test system: PC-3
# [6] = test system: UO-31
# [7] = test system: IGROV-1
# [8] = test system: 786-0
# [9] = test system: Malme-3M
# [10] = test system: COLO 205
# [11] = test system: HOP-62
# [12] = test system: SK-OV-3
# [13] = test system: NCI/ADR-RES
# [14] = test system: SN12C
# [15] = test system: EKVX
# [16] = test system: NCI-H460
# [17] = test system: CCRF-CEM
# [18] = test system: UACC-257
# [19] = test system: SR
SMILES,GI50 [1],GI50 [2],GI50 [3],GI50 [4],GI50 [5],GI50 [6],GI50 [7],GI50 [8],GI50 [9],GI50 [10],GI50 [11],GI50 [12],GI50 [13],GI50 [14],GI50 [15],GI50 [16],GI50 [17],GI50 [18],GI50 [19]
CC[C@@H]1CC[C@@H]2[C@H](CC[C@]3(C)[C@@H](OC(C)=O)CC[C@@H]23)[C@H]1C(=O)OC,25 µM (inactive),14.6 µM (inactive),40 µM (inactive),23.1 µM (inactive),23.7 µM (inactive),33.7 µM (inactive),24.8 µM (inactive),23.4 µM (inactive),17.3 µM (inactive),16 µM (inactive),24.9 µM (inactive),> 100 µM (inactive),26.9 µM (inactive),25.2 µM (inactive),25.2 µM (inactive),23 µM (inactive),22.1 µM (inactive),25.3 µM (inactive),–
O=C(O)c1ccccc1NS(=O)(=O)c1ccc([N+](=O)[O-])cc1,> 100 µM (inactive),> 100 µM (inactive),> 100 µM (inactive),> 100 µM (inactive),–,> 100 µM (inactive),> 100 µM (inactive),> 100 µM (inactive),> 100 µM (inactive),> 100 µM (inactive),> 100 µM (inactive),> 100 µM (inactive),–,> 100 µM (inactive),> 100 µM (inactive),> 100 µM (inactive),> 100 µM (inactive),> 100 µM (inactive),–
CC1(C)O[C@@H]([C@H](O)CO)[C@H](O)[C@@H](C2SCCCS2)O1,> 100 µM (inactive),> 100 µM (inactive),> 100 µM (inactive),> 100 µM (inactive),> 100 µM (inactive),> 100 µM (inactive),> 100 µM (inactive),> 100 µM (inactive),–,> 100 µM (inactive),> 100 µM (inactive),> 100 µM (inactive),> 100 µM (inactive),> 100 µM (inactive),> 100 µM (inactive),> 100 µM (inactive),–,> 100 µM (inactive),23.2 µM (inactive)
COc1cccc(C2CC(=O)c3cccn32)c1 (stereo not drawn),> 100 µM (inactive),–,> 100 µM (inactive),> 100 µM (inactive),73.3 µM (inactive),29.4 µM (inactive),> 100 µM (inactive),> 100 µM (inactive),–,> 100 µM (inactive),> 100 µM (inactive),> 100 µM (inactive),> 100 µM (inactive),> 100 µM (inactive),> 100 µM (inactive),–,> 100 µM (inactive),> 100 µM (inactive),> 100 µM (inactive)
COCc1nc2c(OC)c(-c3nc4ccc(N5CCN(C)CC5)nc4[nH]3)cc(OC)c2n1C,19.9 µM (inactive),–,17.5 µM (inactive),44.2 µM (inactive),21.2 µM (inactive),22 µM (inactive),43.8 µM (inactive),43.7 µM (inactive),19.4 µM (inactive),8.59 µM (inactive),42.3 µM (inactive),66.5 µM (inactive),55 µM (inactive),80 µM (inactive),21 µM (inactive),26.4 µM (inactive),21 µM (inactive),17.9 µM (inactive),–
COc1cc(C2c3cc4c(cc3OC(NNS(=O)(=O)c3ccc(C)cc3)C2C)OCO4)cc(OC)c1O (stereo not drawn),23.4 µM (inactive),9.75 µM (inactive),7.98 µM (inactive),33.9 µM (inactive),3.87 µM (inactive),–,9.25 µM (inactive),16.6 µM (inactive),5.85 µM (inactive),19.2 µM (inactive),10.4 µM (inactive),11.3 µM (inactive),6.68 µM (inactive),19 µM (inactive),11.7 µM (inactive),5.85 µM (inactive),7.94 µM (inactive),5.06 µM (inactive),–
CNC(=O)CCCNC(=O)CCCCC(=O)N(C)C,> 100 µM (inactive),> 100 µM (inactive),> 100 µM (inactive),> 100 µM (inactive),> 100 µM (inactive),> 100 µM (inactive),–,> 100 µM (inactive),> 100 µM (inactive),> 100 µM (inactive),> 100 µM (inactive),> 100 µM (inactive),> 100 µM (inactive),> 100 µM (inactive),–,> 100 µM (inactive),–,–,–
[O-][n+]1c2cc(CN3CCOCC3)c(CN3CCOCC3)cc2[n+]([O-])c2c(O)cccc21,3.91 µM (inactive),–,4.07 µM (inactive),4.38 µM (inactive),–,3.72 µM (inactive),5 µM (inactive),1.41 µM (inactive),8.73 µM (inactive),5 µM (inactive),3.75 µM (inactive),4.13 µM (inactive),–,2.87 µM (inactive),6.53 µM (inactive),0.993 µM (active),0.427 µM (active),6.24 µM (inactive),0.193 µM (active)
Cc1cn(C2CC(N=[N+]=[N-])C(COP(=O)(O)OCC3OC(n4cc(F)c(=O)[nH]c4=O)CC3O)O2)c(=O)[nH]c1=O (stereo not drawn),> 100 µM (inactive),12.2 µM (inactive),0.63 µM (active),> 100 µM (inactive),> 100 µM (inactive),0.465 µM (active),2.88 µM (inactive),0.381 µM (active),–,> 100 µM (inactive),0.348 µM (active),> 100 µM (inactive),0.57 µM (active),> 100 µM (inactive),6.46 µM (inactive),0.0292 µM (active),0.312 µM (active),96.6 µM (inactive),1.92 µM (inactive)
COc1cc(-c2[o+]c3cc(O)cc(OC4OC(CO)C(O)C(O)C4O)c3cc2OC2OC(CO)C(O)C(O)C2O)cc(OC)c1O (stereo not drawn),> 100 µM (inactive),> 100 µM (inactive),> 100 µM (inactive),> 100 µM (inactive),> 100 µM (inactive),> 100 µM (inactive),> 100 µM (inactive),> 100 µM (inactive),> 100 µM (inactive),> 100 µM (inactive),> 100 µM (inactive),> 100 µM (inactive),–,> 100 µM (inactive),> 100 µM (inactive),> 100 µM (inactive),70.1 µM (inactive),> 100 µM (inactive),> 100 µM (inactive)
Cc1cc2c(-c3ccccc3)cc(=O)[nH]c2cc1N,> 100 µM (inactive),> 100 µM (inactive),> 100 µM (inactive),> 100 µM (inactive),> 100 µM (inactive),> 100 µM (inactive),> 100 µM (inactive),> 100 µM (inactive),–,> 100 µM (inactive),> 100 µM (inactive),–,> 100 µM (inactive),> 100 µM (inactive),> 100 µM (inactive),> 100 µM (inactive),> 100 µM (inactive),> 100 µM (inactive),> 100 µM (inactive)
CCCc1n[nH]c(=O)n1N1C(=O)C=CC1=O,–,> 100 µM (inactive),–,> 100 µM (inactive),> 100 µM (inactive),–,> 100 µM (inactive),> 100 µM (inactive),> 100 µM (inactive),> 100 µM (inactive),> 100 µM (inactive),> 100 µM (inactive),–,> 100 µM (inactive),> 100 µM (inactive),> 100 µM (inactive),> 100 µM (inactive),> 100 µM (inactive),> 100 µM (inactive)
O=C1c2ccccc2-c2nc3ccncc3n21,> 100 µM (inactive),–,> 100 µM (inactive),> 100 µM (inactive),> 100 µM (inactive),> 100 µM (inactive),> 100 µM (inactive),> 100 µM (inactive),> 100 µM (inactive),> 100 µM (inactive),> 100 µM (inactive),> 100 µM (inactive),> 100 µM (inactive),> 100 µM (inactive),> 100 µM (inactive),> 100 µM (inactive),> 100 µM (inactive),> 100 µM (inactive),> 100 µM (inactive)
CC(=O)Nc1ccc(/N=N\c2c(O)c(S(=O)(=O)O)cc3cc(S(=O)(=O)O)ccc23)cc1,> 100 µM (inactive),> 100 µM (inactive),> 100 µM (inactive),> 100 µM (inactive),> 100 µM (inactive),> 100 µM (inactive),> 100 µM (inactive),> 100 µM (inactive),> 100 µM (inactive),> 100 µM (inactive),> 100 µM (inactive),> 100 µM (inactive),> 100 µM (inactive),> 100 µM (inactive),> 100 µM (inactive),–,–,> 100 µM (inactive),–
Nc1c(C(=O)c2ccc(Cl)c(Cl)c2)[nH]c(NCc2ccccc2)c1C(=S)Nc1ccccc1,3.23 µM (inactive),–,12.2 µM (inactive),13.6 µM (inactive),13.8 µM (inactive),6.7 µM (inactive),11.8 µM (inactive),11.2 µM (inactive),3.13 µM (inactive),1.78 µM (inactive),17.3 µM (inactive),17.2 µM (inactive),2.08 µM (inactive),14.9 µM (inactive),14.7 µM (inactive),5.42 µM (inactive),–,13.8 µM (inactive),3.1 µM (inactive)
COc1cccc(C2c3cc4c(cc3OC(Nc3ccccc3)C2C)OCO4)c1OC (stereo not drawn),11.2 µM (inactive),6.5 µM (inactive),3.94 µM (inactive),44.5 µM (inactive),4.47 µM (inactive),4.19 µM (inactive),14.9 µM (inactive),10.6 µM (inactive),6.31 µM (inactive),4.98 µM (inactive),15 µM (inactive),7.59 µM (inactive),–,6.4 µM (inactive),19.8 µM (inactive),3.43 µM (inactive),2.88 µM (inactive),35.6 µM (inactive),0.809 µM (active)
